Where two headings read alike, the source gives them in different places. Marks after values point to notes of the source that are not given here.
Columns and labels:
[1] = cited from earlier work; for share represented by hydroxytyrosol sulfates: ref Kotronoulas et al. 39
[2] = Plasma pharmacokinetics (noncompartmental analysis) after single oral administration of Arbequina table olives; assay type: in vivo, Sprague-Dawley rats; details: for AUC0–∞ / Cmax/D / AUC0–∞/D / AUCt/D / Cl/F·fm (apparent clearance of metabolite) / MRT0–∞ / Vdarea/F·fm (apparent volume of distribution of metabolite, terminal phase) / Vss/F·fm (apparent steady-state volume of distribution of metabolite) / t1/2λz (apparent elimination half-life) / λz (apparent elimination rate constant) / AUCt / Cmax: geometric mean (95% CI); for Cmax/D: D = dose of hydroxytyrosol in nmol; for AUC0–∞/D / AUCt/D: D in nmol; for Tmax: median (min, max); for AUCt: time zero up to 8 h; for Cmax / percentage of the AUC of each compound divided by the AUC of the sum of all of them: plasma; for Cmax: read-out: Cmax; for half-life (t1/2λz) / mean residence time (MRT0–∞): oral table olives; for percentage of the AUC of each compound divided by the AUC of the sum of all of them: both doses (similar ratios between doses)
Description: The experiments were performed using Sprague–Dawley rats (n = 13) randomly divided into two groups, the 30 olives group (n = 6) that received the dose of 3.85 g/kg and the 60 olives group (n = 7), which was given the dose of 7.70 g/kg. The freshly prepared homogeneous suspensions were given to overnight fasted rats by oral gavage (18-gauge × 76 mm, ref FFSS-186-76, Instech Laboratories, Inc., Plymouth Meeting, PA). The volume of administration was 10 mL/kg. After the single administration of Arbequina table olives, blood was obtained at 30, 60, 90, 120, 240, 360, and 480 min from each animal. Samples were withdrawn from the lateral saphenous vein and placed into Microvette CB 300 K2 EDTA-K2 (Sarstedt, Granollers, Spain) coated tubes.[31] At each time point, 0.40 mL of blood was collected, meaning that a maximum of 2.4 mL was obtained from each animal. […] Blood corresponding to 480 min was taken by a cardiac puncture with the animal under terminal anesthesia. Plasma was immediately obtained by centrifugation at 1500g at 4 °C for 15 min (Centrifuge Megafuge 1.0R, Heraeus, Boadilla, Spain) and kept at −20 °C until analysis.
Hydroxytyrosol and its metabolites in plasma were determined by liquid–liquid extraction followed by LC-MS/MS analysis as previously described.[11] Briefly, 200 μL of plasma was mixed with 10 μL of freshly prepared 10% ascorbic acid followed by 10 μL of 0.5% acetic acid and 10 μL of 2-(3-hydroxyphenyl) ethanol (10 μM, I.S.). Then, 2 mL of ethyl acetate was added to the samples that were vigorously mixed in a vortex (5 min), placed into an ultrasonic bath (10 min), and centrifuged at 1500g at 4 °C (15 min) (Centrifuge Megafuge 1.0R). A second extraction of the pellet with 2 mL of ethyl acetate was carried out. Subsequently, the two pooled supernatants were evaporated to dryness, reconstituted with 100 μL of 80% methanol, placed into amber vials, and immediately analyzed by LC-MS/MS.
The plasmatic concentrations were calculated by the interpolation of the peak area ratio of hydroxytyrosol versus I.S. on a calibration curve. Calibration standards were constructed with blank plasma obtained by cardiac puncture from overnight fasted rats that had never received either table olives or hydroxytyrosol. […] Results were expressed in nmol per liter of plasma (nmol/L). The method was validated following the EMA guidelines[33] at six different concentrations ranging from 0 to 250 nmol/L analyzed on three different days.
Individual PK of hydroxytyrosol and its metabolites were estimated from the plasma concentrations versus time profiles of each animal, through a noncompartmental analysis (NCA) with Phoenix-64 (Build 8.3.4.295, Certara, Princeton, N.J., USA). All concentrations of each pharmacokinetic profile were considered for NCA because the values obtained were above the LOQ. Peak plasma concentration (Cmax) and time to peak plasma concentration (Tmax) were determined by visual inspection of the pharmacokinetic profiles. The apparent elimination rate constant (λz) was estimated from the terminal slope of the semilogarithmic concentration–time curve. The apparent elimination half-life (t1/2λz) was calculated as t1/2z = 0.693/λz. The area under the plasma concentration–time curve from time zero to the last experimental time (AUCt) with analyte concentrations above the LOQ, was calculated by the linear-log trapezoidal rule. The area from time zero to infinity (AUC0–∞) was calculated by adding to the AUCt value the extrapolated area calculated as the ratio between the predicted concentration (Ct) at the last sampling time with concentrations above the LOQ and λz. The mean residence time (MRT0–∞) was given by the ratio of the area under the first-moment curve (AUMC0–∞) to the area under the zero-moment curve (AUC0–∞). The ratio indicating the relative exposure of each metabolite with respect to hydroxytyrosol (AUC0–∞m/AUC0–∞) was also calculated for all of the metabolites. […]

[3] = 30 olives group (hydroxytyrosol 2.95 mg/kg oral), listed as hydroxytyrosol sulfate M1-a
[4] = 60 olives group (hydroxytyrosol 5.89 mg/kg oral), listed as hydroxytyrosol sulfate M1-a
[5] = both doses (30 and 60 olives groups)
[6] = 30 olives group (hydroxytyrosol 2.95 mg/kg oral), listed as hydroxytyrosol sulfate M1-b
[7] = 60 olives group (hydroxytyrosol 5.89 mg/kg oral), listed as hydroxytyrosol sulfate M1-b

hydroxytyrosol sulfate
share in rat plasma ([1]; after phenolic extract from olive cake containing 10.35 mg/kg of hydroxytyrosol, ref Serra et al. 23): 92% | share represented by hydroxytyrosol sulfates ([1]; oral 10 mg/kg of hydroxytyrosol to rats): 60% | share represented by hydroxytyrosol sulfates ([1]; oral 100 mg/kg of hydroxytyrosol to rats): 75%

hydroxytyrosol sulfate [M1-a]
AUC0–∞ ([2]; 30 olives group (3.85 g olives/kg, hydroxytyrosol 2.95 mg/kg oral), listed as hydroxytyrosol sulfate M1-a): 4765 (3491, 6504)^a min·nmol/L | Cmax/D [2, 3]: 0.00899 (0.00522, 0.01546)^a | AUC0–∞/D [2, 3]: 0.90 (0.68, 1.23)^a | AUCt/D [2, 3]: 0.82 (0.60, 1.11)^a | Cl/F·fm (apparent clearance of metabolite) [2, 3]: 4.02 (2.95, 5.48)^a L/min/kg | MRT0–∞ [2, 3]: 173 (121.9, 245.5)^a min | Vdarea/F·fm (apparent volume of distribution of metabolite, terminal phase) [2, 3]: 491 (190, 1264)^a L/kg | Vss/F·fm (apparent steady-state volume of distribution of metabolite) [2, 3]: 616 (339, 1120)^a L/kg | t1/2λz (apparent elimination half-life) [2, 3]: 130.1 (64.5, 262.2)^a min | λz (apparent elimination rate constant) [2, 3]: 0.0053 (0.0026, 0.011)^a 1/min | Tmax [2, 3]: 45.5 (30, 120)^a min | AUCt [2, 3]: 4321 (3152, 5924)^a min·nmol/L | Cmax ([2]; 30 olives group: single oral 3.85 g destoned olives/kg (hydroxytyrosol 2.95 mg/kg), n = 6, listed as hydroxytyrosol sulfate M1-a): 47.3 nM | AUC0–∞ ([2]; 60 olives group (7.70 g olives/kg, hydroxytyrosol 5.89 mg/kg oral), listed as hydroxytyrosol sulfate M1-a): 13133 (9812, 17577)^b min·nmol/L | Cmax/D [2, 4]: 0.00872 (0.00562, 0.01354)^a | AUC0–∞/D [2, 4]: 1.18 (0.84, 1.64)^a | AUCt/D [2, 4]: 1.02 (0.75, 1.38)^a | Cl/F·fm (apparent clearance of metabolite) [2, 4]: 2.91 (2.17, 3,89)^a L/min/kg | MRT0–∞ [2, 4]: 188.3 (143.6, 246,9)^a min | Vdarea/F·fm (apparent volume of distribution of metabolite, terminal phase) [2, 4]: 479 (290, 790)^a L/kg | Vss/F·fm (apparent steady-state volume of distribution of metabolite) [2, 4]: 548 (380, 789)^a L/kg | t1/2λz (apparent elimination half-life) [2, 4]: 129.4 (83.0, 201.6)^a min | λz (apparent elimination rate constant) [2, 4]: 0.0054 (0.0034, 0.0083)^a 1/min | Tmax [2, 4]: 36 (30, 42)^a min | AUCt [2, 4]: 11376 (8674, 14919)^b min·nmol/L | Cmax ([2]; 60 olives group: single oral 7.70 g destoned olives/kg (hydroxytyrosol 5.89 mg/kg), n = 7, listed as hydroxytyrosol sulfate M1-a): 97.3 nM | AUC ratio of metabolite versus parent hydroxytyrosol (AUC0–∞m/AUC0–∞) [2, 5]: around 1.5 | Vss/F·fm and Vdarea/F·fm [2, 5]: approximately 500 L/kg | half-life (t1/2λz) [2, 5]: approximately 2 h | mean residence time (MRT0–∞) [2, 5]: around 3 h | percentage of the AUC of each compound divided by the AUC of the sum of all of them [2]: 12%

hydroxytyrosol sulfate [M1-b]
AUC0–∞ ([2]; 30 olives group (3.85 g olives/kg, hydroxytyrosol 2.95 mg/kg oral), listed as hydroxytyrosol sulfate M1-b): 28084 (20399, 38664)^a min·nmol/L | Cmax/D [2, 6]: 0.0582 (0.0343, 0.0985)^a | AUC0–∞/D [2, 6]: 5.33 (3.89, 7.31)^a | AUCt/D [2, 6]: 5.11 (3.78, 6.90)^a | Cl/F·fm (apparent clearance of metabolite) [2, 6]: 0.68 (0.49, 0.94)^a L/min/kg | MRT0–∞ [2, 6]: 141.4 (118.1, 169.3)^a min | Vdarea/F·fm (apparent volume of distribution of metabolite, terminal phase) [2, 6]: 85.0 (57.2, 126)^a L/kg | Vss/F·fm (apparent steady-state volume of distribution of metabolite) [2, 6]: 96.4 (62.6, 148)^a L/kg | t1/2λz (apparent elimination half-life) [2, 6]: 86.4 (67.7, 110)^a min | λz (apparent elimination rate constant) [2, 6]: 0.0080 (0.0063, 0.01024)^a 1/min | Tmax [2, 6]: 30.50 (30,120)^a min | AUCt [2, 6]: 26907 (19824, 36520)^a min·nmol/L | Cmax ([2]; 30 olives group: single oral 3.85 g destoned olives/kg (hydroxytyrosol 2.95 mg/kg), n = 6, listed as hydroxytyrosol sulfate M1-b): 306 nM | AUC0–∞ ([2]; 60 olives group (7.70 g olives/kg, hydroxytyrosol 5.89 mg/kg oral), listed as hydroxytyrosol sulfate M1-b): 80006 (65787, 97299)^b min·nmol/L | Cmax/D [2, 7]: 0.0491 (0.0333, 0.0726)^a | AUC0–∞/D [2, 7]: 7.17 (5.62, 9.14)^a | AUCt/D [2, 7]: 6.05 (4.76, 7.70)^a | Cl/F·fm (apparent clearance of metabolite) [2, 7]: 0.48 (0.39, 0.58)^a L/min/kg | MRT0–∞ [2, 7]: 198.8 (139.0, 284.3)^a min | Vdarea/F·fm (apparent volume of distribution of metabolite, terminal phase) [2, 7]: 75.1 (45.7, 123)^a L/kg | Vss/F·fm (apparent steady-state volume of distribution of metabolite) [2, 7]: 83.5 (61.6, 112.9)^a L/kg | t1/2λz (apparent elimination half-life) [2, 7]: 129.3 (74.1, 225.6)^a min | λz (apparent elimination rate constant) [2, 7]: 0.0054 (0.0031, 0.0094)^a 1/min | Tmax [2, 7]: 38 (30, 100)^a min | AUCt [2, 7]: 67548 (53591, 85140)^b min·nmol/L | Cmax ([2]; 60 olives group: single oral 7.70 g destoned olives/kg (hydroxytyrosol 5.89 mg/kg), n = 7, listed as hydroxytyrosol sulfate M1-b): 548 nM | Vss/F·fm and Vdarea/F·fm [2, 5]: ~90 L/kg | half-life (t1/2λz) [2, 5]: approximately 2 h | mean residence time (MRT0–∞) [2, 5]: around 3 h | percentage of the AUC of each compound divided by the AUC of the sum of all of them [2]: approximately 73%

— PMC10835732, “Pharmacokinetics of Hydroxytyrosol and Its Sulfate and Glucuronide Metabolites after the Oral Administration of Table Olives to Sprague-Dawley Rats” (Journal of Agricultural and Food Chemistry, 2024)
